In data set [1] the test system is Mus musculus. The data set can be described thus: Antidiabetic activity against C57BL/Ks db/db mouse assessed as reduction in fasting blood glucose level at 1 uM/kg, sc administered once every 2 days for 2 weeks by glucometer analysis. It counts as functional, organism-based.
A further data set has as its system Pepsin. Briefly: Stability of compound assessed as Pepsin (unknown origin) mediated compound degradation by measuring half-life by HPLC analysis. Type of data set: ADME. As to conditions: human.
Data set [2] deals with T1, Tyrosine-protein phosphatase non-receptor type 1 (Homo sapiens, UniProt P18031).
T1 sequence (P18031 whole entry): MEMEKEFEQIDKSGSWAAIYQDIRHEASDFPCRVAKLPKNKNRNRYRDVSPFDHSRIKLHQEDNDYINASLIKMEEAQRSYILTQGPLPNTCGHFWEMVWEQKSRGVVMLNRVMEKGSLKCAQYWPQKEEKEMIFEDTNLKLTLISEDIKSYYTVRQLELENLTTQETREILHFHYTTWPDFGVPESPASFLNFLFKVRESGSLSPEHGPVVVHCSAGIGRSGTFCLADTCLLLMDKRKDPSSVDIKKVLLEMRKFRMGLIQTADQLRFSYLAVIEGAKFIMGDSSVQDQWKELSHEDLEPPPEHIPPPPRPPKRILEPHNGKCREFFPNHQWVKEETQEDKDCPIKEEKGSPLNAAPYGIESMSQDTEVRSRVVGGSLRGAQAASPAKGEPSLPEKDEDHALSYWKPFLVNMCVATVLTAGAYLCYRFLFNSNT
Briefly: Inhibition of N-terminal His tagged recombinant human PTP1B expressed in Escherichia coli using pNPP as substrate assessed as substrate hydrolysis.

For data set [3], the system named is Mus musculus. The data set can be described thus: Antidiabetic activity against C57BL/Ks db/db mouse assessed as reduction in fasting blood glucose level at 1 uM/kg, sc administered once a week for 2 weeks by glucometer analysis. Type of data set: functional, organism-based.
Data set [4] relates to Mus musculus. The data set can be described thus: Antidiabetic activity against C57BL/Ks db/db mouse assessed as redcution in fasting blood glucose level at 1 umol/kg, sc administered once a week and measured on day 26 by glucometer analysis (reference value: 31.4 +/- 2.2 […]). It counts as functional. As to conditions: dose 1 µmol/kg, time 26 day.
The subject of data set [5] is Mus musculus. The data set can be described thus: Antidiabetic activity against C57BL/Ks db/db mouse assessed as redcution in fasting blood glucose level at 1 umol/kg, sc administered once a week and measured on day 24 by glucometer analysis (reference value: 30.2 +/- 3.2 […]). It counts as functional. The conditions noted are these: dose 1 µmol/kg, time 24 day.

Data set [6] relates to Mus musculus. The data set can be described thus: Antidiabetic activity against sc dosed C57BL/Ks db/db mouse assessed as reduction in glucagon level at 1 umol/kg by ELISA analysis. It counts as functional, organism-based. As to conditions: dose 1.0 µmol/kg.
Another data set deals with T2, Carboxypeptidase A1 (Homo sapiens, UniProt P15085).
T2 sequence (P15085 whole entry): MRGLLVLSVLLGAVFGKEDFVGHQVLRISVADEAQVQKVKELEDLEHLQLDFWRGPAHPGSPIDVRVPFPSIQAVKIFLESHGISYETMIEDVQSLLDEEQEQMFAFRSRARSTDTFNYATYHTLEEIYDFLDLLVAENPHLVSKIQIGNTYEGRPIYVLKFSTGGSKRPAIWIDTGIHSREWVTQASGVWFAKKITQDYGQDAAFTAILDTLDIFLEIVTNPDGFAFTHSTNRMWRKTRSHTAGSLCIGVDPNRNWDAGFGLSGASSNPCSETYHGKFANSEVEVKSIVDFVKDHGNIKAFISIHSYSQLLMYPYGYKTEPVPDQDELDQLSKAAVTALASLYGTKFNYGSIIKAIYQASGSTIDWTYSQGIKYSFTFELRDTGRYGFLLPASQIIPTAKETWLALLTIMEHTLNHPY
The data set can be described thus: Stability of compound assessed as carboxypeptidase A (unknown origin) mediated compound degradation by measuring fold change of half-life by RP-HPLC analysis relative to BimBH312-mer peptide. Type of data set: ADME.

Data set [7] has as its system Mus musculus. The data set can be described thus: Antidiabetic activity against sc dosed C57BL/Ks db/db mouse assessed as reduction in C-peptide level at 1 umol/kg by ELISA analysis. Type of data set: functional, organism-based. The conditions noted are these: dose 1.0 µmol/kg.
Data set [8] has as its system Mus musculus. Briefly: Antidiabetic activity against over-night fasted C57BL/ks db/db mouse assessed as suppression of increased blood glucose concentration at 1 uM/kg, sc pretreated with compound for 4 weeks followed by oral glucose stimulation and measured upto 120 mins by oral glucose tolerance test. Type of data set: functional, organism-based. The conditions noted are these: time 40440.0 min.

Data set [9] in a line: Toxicity in C57BL/Ks db/db mouse assessed as signs of distress at 1 uM/kg, sc administered for 2 weeks. It counts as organism-based. As to conditions: in vivo, 336 h.
In data set [10] the test system is Mus musculus. The data set can be described thus: Antidiabetic activity against C57BL/Ks db/db mouse assessed as redcution in fasting blood glucose level at 1 umol/kg, sc administered once a week and measured on day 22 by glucometer analysis (reference value: 27.4 +/- 1.8 […]). As to conditions: dose 1 µmol/kg, time 22 day. Type of data set: functional.
Data set [11] concerns Mus musculus. Briefly: Antidiabetic activity against C57BL/Ks db/db mouse assessed as redcution in fasting blood glucose level at 1 umol/kg administered subcutaneously and measured immediately by glucometer analysis (reference value: 19.0 +/- 2.7 […]). It counts as functional. The conditions noted are these: dose 1 µmol/kg; route sc.
The next data set has as its target chymotrypsin (Homo sapiens, UniProt P17538+P40313+Q6GPI1+Q99895). Briefly: Stability of compound assessed as chymotrypsin (unknown origin) mediated compound degradation by measuring half-life by RP-HPLC analysis. It counts as ADME, protein assay.
The nature of data set [12]: Stability of compound assessed as Proteinase K (unknown origin) mediated compound degradation by measuring fold change of half-life by HPLC analysis relative to BimBH312-mer peptide. It counts as ADME.
Data set [13] concerns Mus musculus. The data set can be described thus: Antidiabetic activity against C57BL/Ks db/db mouse assessed as redcution in fasting blood glucose level at 1 umol/kg, sc administered once a week and measured on day 28 by glucometer analysis (reference value: 32.4 +/- 1.1 […]). As to conditions: dose 1 µmol/kg, time 28 day. It counts as functional.
A short description of data set [14]: Toxicity in C57BL/Ks db/db mouse assessed as signs of discomfort at 1 uM/kg, sc administered for 2 weeks. It counts as organism-based. The conditions noted are these: in vivo, 336 h.
Data set [15] concerns Mus musculus. Briefly: Antidiabetic activity against sc dosed C57BL/Ks db/db mouse assessed as reduction in serum insulin level at 1 umol/kg by ELISA analysis. Type of data set: functional, organism-based. The conditions noted are these: dose 1.0 µmol/kg.
The target of data set [16] is T3, Tyrosine-protein phosphatase non-receptor type 1 (Homo sapiens) (UniProt P18031).
T3 sequence (whole entry): T1 sequence (P18031 whole entry)
The data set can be described thus: Inhibition of N-terminal His tagged recombinant human PTP1B expressed in Escherichia coli using pNPP as substrate assessed as substrate hydrolysis at 40 umol/L relative to control. As to conditions: dose 40.0 µmol/L.

The next data set addresses T4, carboxypeptidase A (Homo sapiens, UniProt P15085).
T4 sequence (P15085 whole entry): T2 sequence (P15085 whole entry)
The data set can be described thus: Stability of compound assessed as carboxypeptidase A (unknown origin) mediated compound degradation by measuring half-life by RP-HPLC analysis. It counts as ADME.

The test system of data set [17] is Mus musculus. The data set can be described thus: Antidiabetic activity against over-night fasted C57BL/ks db/db mouse assessed as suppression of increased blood glucose concentration at 1 uM/kg, sc pretreated with compound for 4 weeks followed by insulin stimulation and measured for 90 mins by insulin tolerance test. Type of data set: functional, organism-based. As to conditions: time 40410.0 min.

Active and inactive are the calls of the source. The rule behind the calls is not given here. Square brackets hold non-standard residues; d marks the D form. Peptide text beside a SMILES is read from it. * marks the point of attachment. ξ: configuration not given here. C18 diacid = O=C(O)CCCCCCCCCCCCCCCCC(=O)*; Myristoyl = CCCCCCCCCCCCCC(=O)*; ξR = N=C(N)NCCCC(N)C(=O)O

Consider `CC[C@H](C)[C@H](NC(=O)CCCCCCCCCCCCCCCCC(=O)O)C(=O)N[C@@H](C)C(=O)N[C@@H](CCC(N)=O)C(=O)N[C@@H](CCC(=O)O)C(=O)N[C@@H](CC(C)C)C(=O)N[C@@H](CCCNC(=N)N)C(=O)NC(CCCNC(=N)N)C(=O)N[C@H](C(=O)NCC(=O)N[C@@H](CC(=O)O)C(=O)N[C@@H](CCC(=O)O)C(=O)N[C@@H](Cc1ccccc1)C(=O)O)[C@@H](C)CC` (some centres not stated) ({C18 diacid}-IAQELR[ξR]IGDEF-OH), for which the outcome in the data set on Mus musculus [1], in the data set with Mus musculus [3], in the data set on Mus musculus [6], with Mus musculus [7], in the data set on Mus musculus [8] and in the data set on Mus musculus [15] was Active. Further, the outcome with Mus musculus [17] was Active. For the same compound, the half-life with Pepsin was 6.77 h; on chymotrypsin, 0.2 h; on carboxypeptidase A, 4.51 h. For the same compound, in data set [2], the IC50 is 385 nM. Also, the “Fasting blood glucose level” value in the data set on Mus musculus [4] is 22.9 mmol/L; in the data set on Mus musculus [5], 14.3 mmol/L; in the data set on Mus musculus [10], 9.9 mmol/L; in the data set on Mus musculus [11] it was 19.8 mmol/L; with Mus musculus [13] it was 18.4 mmol/L. For the same compound, the “fold change (FC)” value at Carboxypeptidase A1 is reported as 140.9; in data set [12], 2.6. The Activity result in [9] and in [14] was “Non-Toxic” each time. The inhibition in data set [16] is above 50%.

As to `CCCCCCCCCCCCCC(=O)N[C@H](C(=O)N[C@@H](C)C(=O)N[C@@H](CCC(N)=O)C(=O)N[C@@H](CCC(=O)O)C(=O)N[C@@H](CC(C)C)C(=O)N[C@@H](CCCNC(=N)N)C(=O)NC(CCCNC(=N)N)C(=O)N[C@H](C(=O)NCC(=O)N[C@@H](CC(=O)O)C(=O)N[C@@H](CCC(=O)O)C(=O)N[C@@H](Cc1ccccc1)C(=O)O)[C@@H](C)CC)[C@@H](C)CC` (some centres not stated) (Myristoyl-IAQELR[ξR]IGDEF-OH), the result in the data set on Mus musculus [1], in the data set on Mus musculus [3], in the data set on Mus musculus [6], with Mus musculus [7], in the data set on Mus musculus [8] and in the data set with Mus musculus [15] was Active. Also, the outcome with Mus musculus [17] was Active. In addition, the half-life with Pepsin is 0.65 h; on chymotrypsin, 2.96 h; on carboxypeptidase A, 1.02 h. In addition, the half-maximal inhibitory concentration (IC50) in data set [2] is 263 nM. For the same compound, the “Fasting blood glucose level” value with Mus musculus [4] is given as 12.9 mmol/L; in the data set on Mus musculus [5], 14.2 mmol/L; in the data set on Mus musculus [10] it was 11.2 mmol/L; with Mus musculus [11], 20.9 mmol/L; in the data set with Mus musculus [13], 15.6 mmol/L. Besides, the “fold change (FC)” value on Carboxypeptidase A1 was 31.9; in [12] it was 5.8. In addition, the Activity entry in data set [9] and in data set [14] was “Non-Toxic” each time. Besides, the inhibition in data set [16] is above 50%.

The record behind these values is ChEMBL document CHEMBL5316338, “Discovery of Novel PTP1B Inhibitors with Once-Weekly Therapeutic Potential for Type 2 Diabetes: Design, Synthesis, and In Vitro and In Vivo Investigations of BimBH3 Peptide Analogues” (J Med Chem, 2023).
